Data: ChEMBL document CHEMBL1201862, “PubChem BioAssay data set” (2004)
Activity calls are given as the source filed them.

Assays:
HEK293 [1] = assay: cells; settings: Homo sapiens
Tumor necrosis factor = Tumor necrosis factor (Homo sapiens, UniProt P01375); assay: analog potency on TNFa NF-kB signaling – cell-based, revised, SAR follow-up (AID 2337); assay type: functional
[2] = molecular target: Nucleotide-binding oligomerization domain-containing protein 1 (Homo sapiens, UniProt Q9Y239); assay: blockers of NOD1 pathway activity – revised, SAR follow-up (AID 2333); assay type: functional
Mucolipin-3 = molecular target: T1, Mucolipin-3 (Homo sapiens, UniProt Q8TDD5); assay: Fluorescence counterscreen assay for […] agonists: dose response cell-based high-throughput screening assay to identify agonists of the transient receptor potential channel ML3 (TRPML3). [Related pubchem assays: 1424, 1448 ]; assay type: functional
T1 sequence (Q8TDD5 whole entry): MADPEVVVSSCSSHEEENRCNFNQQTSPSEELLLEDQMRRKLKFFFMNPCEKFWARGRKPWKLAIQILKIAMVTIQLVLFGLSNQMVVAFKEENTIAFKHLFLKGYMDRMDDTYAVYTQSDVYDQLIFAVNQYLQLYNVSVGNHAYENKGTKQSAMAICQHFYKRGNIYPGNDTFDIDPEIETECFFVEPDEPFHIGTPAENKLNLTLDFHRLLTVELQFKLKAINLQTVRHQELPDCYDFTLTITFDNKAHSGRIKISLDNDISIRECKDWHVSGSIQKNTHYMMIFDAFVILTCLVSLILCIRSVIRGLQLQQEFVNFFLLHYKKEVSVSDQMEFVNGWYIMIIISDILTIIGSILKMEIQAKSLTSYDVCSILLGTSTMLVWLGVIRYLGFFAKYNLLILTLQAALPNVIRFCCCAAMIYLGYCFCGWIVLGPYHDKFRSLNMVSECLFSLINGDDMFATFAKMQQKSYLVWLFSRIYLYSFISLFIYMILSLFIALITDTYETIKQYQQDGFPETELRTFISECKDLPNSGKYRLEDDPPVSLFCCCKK

Ion channel NompC = Ion channel NompC (Danio rerio, UniProt Q7T1G6); assay: Dose response cell-based high-throughput screening assay for agonists of the transient receptor potential channel N1 (TRPN1). [Related pubchem assays (depositor defined):AID1424, AID1448]; assay type: functional
HEK293 [3] = assay: NOD2 signaling inhibitors in MDP-stimulated cells, cell-based, uHTS, luminescence (AID 2001); assay type: functional; settings: Homo sapiens
HEK293 [4] = assay: inhibition of NOD1-driven NF-kB reporter – cell-based, luminescence, uHTS, primary screen (AID 1578); assay type: functional; settings: Homo sapiens
HEK293 [5] = assay: cells; assay type: functional, cell-based; settings: Homo sapiens
HEK293 [6] = assay: cells; assay type: functional, cell-based; settings: Homo sapiens; remark: listed apart in the source
HEK293 [7] = assay: cells; assay type: functional, cell-based; settings: Homo sapiens; remark: listed apart in the source
[8] = loss of viability in HepG2 cells – cell-based, CellTiter-Glo, cherry-picked, cytotoxicity control for Shn3 inhibitor project, dose response (AID 624134); assay type: functional
[9] = Luminescence Cell-Based Dose Retest to Confirm Inhibitors of Cancer Stem Cells. [Related pubchem assays (depositor defined):AID2717, AID2721]; assay type: functional; settings: Homo sapiens
[10] = non-specific 3'UTR reporter inhibition in Clone20-Shn3RL – cell-based, Renilla luciferase, cherry-picked, counter-screen for Shn3 inhibitor project, dose response (AID 624133); assay type: functional
Streptococcus = assay: GAS UMAA2166 growth inhibition – luminescence, BacTiterGlo, counter-screen for streptokinase expression inhibitor project, dose response (AID 1915); assay type: functional, organism-based;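 note: potency for reduction of bacterial viability or growth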
[11] = CCR5-tropic HIV-1 fusion blockers – cell-based, CCR5-tropic Env, dose response (AID 2279); assay type: functional
[12] = reduction of Shn3 3'UTR-driven luciferase in osteoblasts – cell-based, Clone20 osteoblasts, firefly luciferase, cherry-picked, dose response (AID 624132); assay type: functional;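 note: firefly luciferase luminescence from reporter carrying the Shn3 3'UTR in osteoblasts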
[13] = system: Streptococcus sp. 'group A'; assay: Streptococcus pyogenes SK(-)GAS viability under kanamycin – luminescence, BacTiterGlo, confirmation, counter-screen for streptokinase expression inhibitor project, dose response (AID 1900); assay type: functional, organism-based
Streptokinase A = molecular target: T2, Streptokinase A (Streptococcus pyogenes serotype M1, UniProt P10520); assay: viability-normalized secreted streptokinase activity reduction – plasminogen activation absorbance, OD405, dose response (AID 1914); assay type: functional, Streptococcus pyogenes M1 GAS;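 note: secreted streptokinase activity via plasminogen activation per viability signal from cell pellet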
T2 sequence (P10520 whole entry): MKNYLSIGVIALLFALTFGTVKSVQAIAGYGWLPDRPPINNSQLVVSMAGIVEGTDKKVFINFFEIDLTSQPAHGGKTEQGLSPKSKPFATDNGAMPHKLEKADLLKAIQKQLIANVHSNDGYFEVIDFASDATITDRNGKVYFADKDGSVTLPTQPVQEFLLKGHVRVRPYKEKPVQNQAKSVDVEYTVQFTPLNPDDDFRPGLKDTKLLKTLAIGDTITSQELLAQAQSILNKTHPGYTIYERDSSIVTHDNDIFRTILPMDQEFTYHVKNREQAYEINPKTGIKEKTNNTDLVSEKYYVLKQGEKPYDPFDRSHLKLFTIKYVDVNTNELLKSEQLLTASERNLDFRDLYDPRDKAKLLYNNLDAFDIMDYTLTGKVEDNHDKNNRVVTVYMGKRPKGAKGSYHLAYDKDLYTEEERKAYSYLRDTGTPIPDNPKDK

Chain of Ion channel NompC (Q7T1G6 whole entry): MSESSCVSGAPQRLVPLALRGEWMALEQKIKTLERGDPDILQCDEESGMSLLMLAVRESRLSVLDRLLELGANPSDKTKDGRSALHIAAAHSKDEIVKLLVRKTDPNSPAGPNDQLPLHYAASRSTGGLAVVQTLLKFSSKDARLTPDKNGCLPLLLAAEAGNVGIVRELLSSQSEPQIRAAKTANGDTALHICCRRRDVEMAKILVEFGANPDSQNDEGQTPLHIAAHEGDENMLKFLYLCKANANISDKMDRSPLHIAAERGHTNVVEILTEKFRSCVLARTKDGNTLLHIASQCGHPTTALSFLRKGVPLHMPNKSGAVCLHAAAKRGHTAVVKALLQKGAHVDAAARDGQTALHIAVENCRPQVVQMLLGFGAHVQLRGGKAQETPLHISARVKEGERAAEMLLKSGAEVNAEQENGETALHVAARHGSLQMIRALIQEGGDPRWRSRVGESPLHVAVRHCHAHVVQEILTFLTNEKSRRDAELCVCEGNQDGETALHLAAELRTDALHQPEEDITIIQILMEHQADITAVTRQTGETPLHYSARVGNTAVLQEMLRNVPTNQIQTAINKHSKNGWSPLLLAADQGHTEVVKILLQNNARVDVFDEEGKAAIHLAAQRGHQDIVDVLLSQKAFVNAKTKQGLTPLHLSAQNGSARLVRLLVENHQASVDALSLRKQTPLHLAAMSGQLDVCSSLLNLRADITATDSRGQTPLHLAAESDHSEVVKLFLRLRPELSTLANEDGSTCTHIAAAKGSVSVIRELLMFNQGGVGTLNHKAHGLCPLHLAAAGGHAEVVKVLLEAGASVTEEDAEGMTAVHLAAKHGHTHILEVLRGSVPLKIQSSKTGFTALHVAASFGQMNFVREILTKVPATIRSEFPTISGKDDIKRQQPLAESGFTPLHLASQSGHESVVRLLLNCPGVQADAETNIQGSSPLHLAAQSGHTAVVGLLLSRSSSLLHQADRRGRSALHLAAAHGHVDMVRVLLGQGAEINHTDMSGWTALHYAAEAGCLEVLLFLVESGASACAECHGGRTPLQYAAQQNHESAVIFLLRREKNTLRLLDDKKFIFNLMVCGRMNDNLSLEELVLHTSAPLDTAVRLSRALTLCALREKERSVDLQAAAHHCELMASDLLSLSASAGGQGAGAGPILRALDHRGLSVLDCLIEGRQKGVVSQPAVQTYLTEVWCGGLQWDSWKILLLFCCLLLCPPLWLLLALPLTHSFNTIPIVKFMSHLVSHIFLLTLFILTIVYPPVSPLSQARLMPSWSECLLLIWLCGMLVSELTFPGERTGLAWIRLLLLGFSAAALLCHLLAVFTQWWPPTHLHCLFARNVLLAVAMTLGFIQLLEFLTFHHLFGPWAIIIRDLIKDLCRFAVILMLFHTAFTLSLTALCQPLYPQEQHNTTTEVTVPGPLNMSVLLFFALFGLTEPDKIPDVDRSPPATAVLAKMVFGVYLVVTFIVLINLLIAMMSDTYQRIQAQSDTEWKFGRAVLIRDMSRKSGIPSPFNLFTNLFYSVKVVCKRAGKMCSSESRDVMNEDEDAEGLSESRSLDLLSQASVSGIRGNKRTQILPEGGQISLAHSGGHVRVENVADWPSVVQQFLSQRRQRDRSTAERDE
Chain of Nucleotide-binding oligomerization domain-containing protein 1 (Q9Y239 whole entry, the tested form may be a part): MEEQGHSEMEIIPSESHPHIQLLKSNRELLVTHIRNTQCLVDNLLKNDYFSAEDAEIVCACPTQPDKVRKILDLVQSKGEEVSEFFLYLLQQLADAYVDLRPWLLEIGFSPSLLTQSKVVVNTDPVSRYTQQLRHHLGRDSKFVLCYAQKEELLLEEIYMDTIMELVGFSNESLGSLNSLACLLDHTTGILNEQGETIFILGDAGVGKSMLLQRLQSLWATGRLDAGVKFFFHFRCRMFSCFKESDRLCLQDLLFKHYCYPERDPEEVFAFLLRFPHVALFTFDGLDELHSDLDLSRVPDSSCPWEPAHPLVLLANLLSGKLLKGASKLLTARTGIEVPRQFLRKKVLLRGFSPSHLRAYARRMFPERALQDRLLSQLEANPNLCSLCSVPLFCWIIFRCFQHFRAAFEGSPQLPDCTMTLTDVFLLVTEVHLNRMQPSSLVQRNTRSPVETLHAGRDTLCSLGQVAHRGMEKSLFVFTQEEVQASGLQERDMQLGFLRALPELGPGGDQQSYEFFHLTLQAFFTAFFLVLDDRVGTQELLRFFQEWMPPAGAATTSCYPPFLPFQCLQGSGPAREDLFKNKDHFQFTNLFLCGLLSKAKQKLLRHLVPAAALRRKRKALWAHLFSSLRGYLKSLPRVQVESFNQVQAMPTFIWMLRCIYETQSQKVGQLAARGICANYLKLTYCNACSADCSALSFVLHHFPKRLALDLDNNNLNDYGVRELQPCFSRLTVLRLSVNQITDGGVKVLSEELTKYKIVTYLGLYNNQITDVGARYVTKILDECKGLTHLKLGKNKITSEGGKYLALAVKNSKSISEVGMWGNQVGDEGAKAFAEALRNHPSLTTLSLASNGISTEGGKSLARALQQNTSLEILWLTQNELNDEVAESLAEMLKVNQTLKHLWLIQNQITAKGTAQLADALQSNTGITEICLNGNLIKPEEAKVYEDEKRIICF
Chain of Tumor necrosis factor (P01375 whole entry, the tested form may be a part): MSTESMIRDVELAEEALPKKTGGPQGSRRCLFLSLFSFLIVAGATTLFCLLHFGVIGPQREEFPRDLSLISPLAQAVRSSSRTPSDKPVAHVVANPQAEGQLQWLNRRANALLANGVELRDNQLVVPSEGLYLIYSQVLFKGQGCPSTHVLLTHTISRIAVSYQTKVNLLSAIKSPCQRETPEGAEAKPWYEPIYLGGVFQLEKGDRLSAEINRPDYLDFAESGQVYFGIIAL

**Q.** For `CSc1ccc(NC(=O)c2ccc(CN3CCc4ccccc4C3)cc2)cc1`, which IC50 (HEK293 [1]) is on record?
**A.** 7.86 µM (active)

**Q.** What about the IC50 (Tumor necrosis factor) of the same compound?
**A.** 0.372 µM (active)

**Q.** And the IC50 [2]?
**A.** 0.243 µM (active)

**Q.** For `N#C/C(=C\c1ccccn1)c1nc2ccccc2s1`, which EC50 (Mucolipin-3) is on record?
**A.** > 1.11 µM (not active)

**Q.** What about the EC50 (Ion channel NompC) of the same compound?
**A.** 0.672 µM (active)

**Q.** For `Cc1ccc(CSc2nc(O)c(C#N)c(-c3ccccc3)n2)cc1`, which IC50 (HEK293 [3]) is on record?
**A.** 12.9 µM (inactive)

**Q.** And the EC50 (HEK293 [4])?
**A.** 9.39 µM (active)

**Q.** What about the IC50 (HEK293 [5]) of the same compound?
**A.** > 20 µM (inactive)

**Q.** What about the IC50 (HEK293 [6]) of the same compound?
**A.** > 20 µM (inactive)

**Q.** What about the IC50 (HEK293 [7]) of the same compound?
**A.** > 20 µM (inactive)

**Q.** And the IC50 (HEK293 [1])?
**A.** > 20 µM (inactive)

**Q.** Which AC50 [8] does the source give for `O=C(Nc1ccccc1Cc1ccccc1)c1ccccc1NS(=O)(=O)c1ccc(Cl)s1` here?
**A.** 14.7 µM (active)

**Q.** What about the AC50 [9] of the same compound?
**A.** 0.706 µM (active)

**Q.** What about the AC50 [10] of the same compound?
**A.** 18.2 µM (active)

**Q.** What about the EC50 (Mucolipin-3) of the same compound?
**A.** 24.3 µM (not active)

**Q.** And the EC50 (Streptococcus)?
**A.** 4.09 µM (active)

**Q.** And the IC50 [11]?
**A.** 2.17 µM (active)

**Q.** And the AC50 [12]?
**A.** 8.18 µM (active)

**Q.** And the EC50 [13]?
**A.** 0.659 µM (active)

**Q.** What about the EC50 (Ion channel NompC) of the same compound?
**A.** > 29.9 µM (inactive)

**Q.** And the EC50 (Streptokinase A)?
**A.** > 150 µM (not active)
